The values below come from patent publication US20230406885A1, “CYCLIC PEPTIDES FOR TRAPPING INTERLEUKIN-1 BETA” (MERCK SHARP & DOHME LLC, priority 2022, published 2023).

pIC50: −log10 of the molar value. *1 amine or outer side, *2 acyl side, *3 side chain or, on linkers, in order; H or OH if unused. Where a SMILES comes first, the peptide text is derived from it. [ ]: non-standard residue; d: D form. Phe(4-(4-Ac-piperazinyl)) = CC(=O)N1CCN(c2ccc(C[C@H](N)C(=O)O)cc2)CC1; Bip(4'-COOH) = N[C@@H](Cc1ccc(-c2ccc(C(=O)O)cc2)cc1)C(=O)O; 1Nal(3S-Me) = C[C@@H](c1cccc2ccccc12)[C@H](N)C(=O)O; Ala(indolin-1-yl) = N[C@@H](CN1CCc2ccccc21)C(=O)O; Trp(6-Cl) = N[C@@H](Cc1c[nH]c2cc(Cl)ccc12)C(=O)O; Phe(4-COOH) = N[C@@H](Cc1ccc(C(=O)O)cc1)C(=O)O; Trp(6-F) = N[C@@H](Cc1c[nH]c2cc(F)ccc12)C(=O)O; Trp(7-aza) = N[C@@H](Cc1c[nH]c2ncccc12)C(=O)O; h3Pal(5-CN) = N#Cc1cncc(CC[C@H](N)C(=O)O)c1; Pro(4R-NH2) = N[C@H]1CN[C@H](C(=O)O)C1; AEF = NCCOc1ccc(C[C@H](N)C(=O)O)cc1; hTyr = N[C@@H](CCc1ccc(O)cc1)C(=O)O; X9 = CCCC[C@](C)(N[*:1])C(=O)[*:2]; hCha = N[C@@H](CCC1CCCCC1)C(=O)O; 4Pal = N[C@@H](Cc1ccncc1)C(=O)O; Cha = N[C@@H](CC1CCCCC1)C(=O)O; dDab = NCC[C@@H](N)C(=O)O; Orn = NCCC[C@H](N)C(=O)O; dDap = NC[C@@H](N)C(=O)O; dNMeA = CN[C@H](C)C(=O)O; Dab = NCC[C@H](N)C(=O)O; Dap = NC[C@H](N)C(=O)O

T1 sequence (P01584 117-269): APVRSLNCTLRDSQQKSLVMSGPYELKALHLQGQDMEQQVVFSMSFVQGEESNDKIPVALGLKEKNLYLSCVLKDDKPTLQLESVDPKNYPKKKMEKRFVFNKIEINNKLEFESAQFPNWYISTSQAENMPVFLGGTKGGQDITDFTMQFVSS

The assay has as its target T1, Recombinant human IL-1β (Homo sapiens, UniProt P01584).
T1 construct: purchased BioLegend 579404
Description: IL-6 assay in MRC5 cells: inhibition of IL-1β induced IL-6 secretion (AlphaLISA). The assay is classed as cell-based. As to conditions: inhibition of IL-1β induced IL-6 secretion in MRC5 cells; read-out: MRC5 IC50. In a few lines:
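IL-1β at 2×EC80 in seeding medium (EMEM, 0.025% BSA) preincubated 1 h at ambient temperature with compound, then 3000 MRC5 cells/well added and incubated overnight at 37 °C, 5% CO2. IL-6 in conditioned medium quantified by AlphaLISA; IC50 from 4-parameter logistic fit.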
As for `CCCC[C@]1(C)NC(=O)[C@@H](CCN)NC(=O)CNC(=O)[C@H](Cc2ccncc2)NC(=O)[C@H](Cc2ccc(-c3ccc(C(=O)O)cc3)cc2)NC(=O)CNC(=O)[C@@H](C)N(C)C(=O)[C@H](CC(=O)O)NC(=O)[C@H]([C@@H](C)c2cccc3ccccc23)NC(=O)[C@@H]2C[C@@H](N)CN2C(=O)CNC(=O)[C@H](Cc2ccc(C(=O)O)cc2)NC(=O)[C@H](Cc2c[nH]c3ccccc23)NC(=O)[C@H](Cc2ccc(N3CCN(C(C)=O)CC3)cc2)NC1=O` [Example 200] (cyclo([Phe(4-(4-Ac-piperazinyl))]W[Phe(4-COOH)]G[Pro(4R-NH2)][1Nal(3S-Me)]D[dNMeA]G[Bip(4'-COOH)][4Pal]G[dDab][X9])), the pIC50 (as a rule, the IC50 on a negative log10 scale, so that one unit is a factor of ten) is 10.47.

As for `CC(=O)N1CCN(c2ccc(C[C@@H]3NC(=O)[C@H](CCC4CCCCC4)NC(=O)[C@@H](CCN)NC(=O)CNC(=O)[C@H](Cc4ccncc4)NC(=O)[C@H](Cc4ccc(-c5ccc(C(=O)O)cc5)cc4)NC(=O)CNC(=O)[C@@H](C)N(C)C(=O)[C@H](CC(=O)O)NC(=O)[C@H]([C@@H](C)c4cccc5ccccc45)NC(=O)[C@@H]4C[C@@H](N)CN4C(=O)CNC(=O)[C@H](Cc4ccc(C(=O)O)cc4)NC(=O)[C@H](Cc4c[nH]c5ccccc45)NC3=O)cc2)CC1` [Example 201] (cyclo([Phe(4-(4-Ac-piperazinyl))]W[Phe(4-COOH)]G[Pro(4R-NH2)][1Nal(3S-Me)]D[dNMeA]G[Bip(4'-COOH)][4Pal]G[dDab][hCha])), the pIC50 was 10.52. Consider `CC(=O)N1CCN(c2ccc(C[C@@H]3NC(=O)[C@H](CCc4ccc(O)cc4)NC(=O)[C@@H](CCN)NC(=O)CNC(=O)[C@H](CC4CCCCC4)NC(=O)[C@H](Cc4ccc(-c5ccc(C(=O)O)cc5)cc4)NC(=O)CNC(=O)[C@@H](C)N(C)C(=O)[C@H](CC(=O)O)NC(=O)[C@H]([C@@H](C)c4cccc5ccccc45)NC(=O)[C@@H]4C[C@@H](N)CN4C(=O)CNC(=O)[C@H](Cc4ccc(C(=O)O)cc4)NC(=O)[C@H](Cc4c[nH]c5ccccc45)NC3=O)cc2)CC1` [Example 202] (cyclo([Phe(4-(4-Ac-piperazinyl))]W[Phe(4-COOH)]G[Pro(4R-NH2)][1Nal(3S-Me)]D[dNMeA]G[Bip(4'-COOH)][Cha]G[dDab][hTyr])), for which the pIC50 was 10.54. In the case of `CC(=O)N1CCN(c2ccc(C[C@@H]3NC(=O)[C@H](CCC4CCCCC4)NC(=O)[C@@H](C)NC(=O)[C@H](CC(C)C)NC(=O)[C@H](CCN)NC(=O)[C@H](Cc4ccc(-c5ccc(C(=O)O)cc5)cc4)NC(=O)CNC(=O)[C@@H](C)N(C)C(=O)[C@H](CC(=O)O)NC(=O)[C@H]([C@@H](C)c4cccc5ccccc45)NC(=O)[C@@H]4C[C@@H](N)CN4C(=O)CNC(=O)[C@H](Cc4ccc(C(=O)O)cc4)NC(=O)[C@H](Cc4c[nH]c5ccccc45)NC3=O)cc2)CC1` [Example 203] (cyclo([Phe(4-(4-Ac-piperazinyl))]W[Phe(4-COOH)]G[Pro(4R-NH2)][1Nal(3S-Me)]D[dNMeA]G[Bip(4'-COOH)][Dab]L[dA][hCha])), the pIC50 was 10.92. Consider `CC(=O)NC[C@@H]1NC(=O)[C@H](Cc2ccc(-c3ccc(C(=O)O)cc3)cc2)NC(=O)CNC(=O)[C@@H](C)N(C)C(=O)[C@H](CC(=O)O)NC(=O)[C@H]([C@@H](C)c2cccc3ccccc23)NC(=O)[C@@H]2C[C@@H](N)CN2C(=O)CNC(=O)[C@H](Cc2ccc(C(=O)O)cc2)NC(=O)[C@H](Cc2c[nH]c3ccccc23)NC(=O)[C@H](Cc2ccc(N3CCN(C(C)=O)CC3)cc2)NC(=O)[C@H](CCc2cncc(C#N)c2)NC(=O)[C@@H](C)NC(=O)[C@H](CCCCN)NC1=O` [Example 204] (cyclo([Phe(4-(4-Ac-piperazinyl))]W[Phe(4-COOH)]G[Pro(4R-NH2)][1Nal(3S-Me)]D[dNMeA]G[Bip(4'-COOH)][Dap](Ac)K[dA][h3Pal(5-CN)])), for which the pIC50 was 11.05. As for `CC(=O)NC[C@@H]1NC(=O)[C@H](Cc2ccc(-c3ccc(C(=O)O)cc3)cc2)NC(=O)CNC(=O)[C@@H](C)N(C)C(=O)[C@H](CC(=O)O)NC(=O)[C@H]([C@@H](C)c2cccc3ccccc23)NC(=O)[C@@H]2C[C@@H](N)CN2C(=O)CNC(=O)[C@H](Cc2ccc(C(=O)O)cc2)NC(=O)[C@H](Cc2c[nH]c3ccccc23)NC(=O)[C@H](Cc2ccc(N3CCN(C(C)=O)CC3)cc2)NC(=O)[C@H](CCc2cncc(C#N)c2)NC(=O)[C@@H](CN)NC(=O)[C@H](CC(C)C)NC1=O` [Example 205] (cyclo([Phe(4-(4-Ac-piperazinyl))]W[Phe(4-COOH)]G[Pro(4R-NH2)][1Nal(3S-Me)]D[dNMeA]G[Bip(4'-COOH)][Dap](Ac)L[dDap][h3Pal(5-CN)])), the figure is 11.00; as for `CC(=O)N1CCN(c2ccc(C[C@@H]3NC(=O)[C@H](CCC4CCCCC4)NC(=O)[C@@H](C)NC(=O)[C@H](CC(C)C)NC(=O)[C@H](CN)NC(=O)[C@H](Cc4ccc(-c5ccc(C(=O)O)cc5)cc4)NC(=O)CNC(=O)[C@@H](C)N(C)C(=O)[C@H](CC(=O)O)NC(=O)[C@H]([C@@H](C)c4cccc5ccccc45)NC(=O)[C@@H]4C[C@@H](N)CN4C(=O)CNC(=O)[C@H](Cc4ccc(C(=O)O)cc4)NC(=O)[C@H](Cc4c[nH]c5ccccc45)NC3=O)cc2)CC1` [Example 206] (cyclo([Phe(4-(4-Ac-piperazinyl))]W[Phe(4-COOH)]G[Pro(4R-NH2)][1Nal(3S-Me)]D[dNMeA]G[Bip(4'-COOH)][Dap]L[dA][hCha])), 10.82; as for `CC(=O)N1CCN(c2ccc(C[C@@H]3NC(=O)[C@H](CCC4CCCCC4)NC(=O)[C@@H](C)NC(=O)[C@H](CC(C)C)NC(=O)[C@H](CCCCN)NC(=O)[C@H](Cc4ccc(-c5ccc(C(=O)O)cc5)cc4)NC(=O)CNC(=O)[C@@H](C)N(C)C(=O)[C@H](CC(=O)O)NC(=O)[C@H]([C@@H](C)c4cccc5ccccc45)NC(=O)[C@@H]4C[C@@H](N)CN4C(=O)CNC(=O)[C@H](Cc4ccc(C(=O)O)cc4)NC(=O)[C@H](Cc4c[nH]c5ccccc45)NC3=O)cc2)CC1` [Example 207] (cyclo([Phe(4-(4-Ac-piperazinyl))]W[Phe(4-COOH)]G[Pro(4R-NH2)][1Nal(3S-Me)]D[dNMeA]G[Bip(4'-COOH)]KL[dA][hCha])), 10.96. As to `CC(=O)NCCCC[C@@H]1NC(=O)[C@H](Cc2ccc(-c3ccc(C(=O)O)cc3)cc2)NC(=O)CNC(=O)[C@@H](C)N(C)C(=O)[C@H](CC(=O)O)NC(=O)[C@H]([C@@H](C)c2cccc3ccccc23)NC(=O)[C@@H]2C[C@@H](N)CN2C(=O)CNC(=O)[C@H](Cc2ccc(C(=O)O)cc2)NC(=O)[C@H](Cc2c[nH]c3ccccc23)NC(=O)[C@H](Cc2ccc(N3CCN(C(C)=O)CC3)cc2)NC(=O)[C@H](CCc2cncc(C#N)c2)NC(=O)[C@@H](C)NC(=O)[C@H](CC(C)C)NC1=O` [Example 208] (cyclo([Phe(4-(4-Ac-piperazinyl))]W[Phe(4-COOH)]G[Pro(4R-NH2)][1Nal(3S-Me)]D[dNMeA]G[Bip(4'-COOH)]K(Ac)L[dA][h3Pal(5-CN)])), the pIC50 was 10.74.

Turning to `CC(=O)N1CCN(c2ccc(C[C@@H]3NC(=O)[C@H](CCC4CCCCC4)NC(=O)[C@@H](C)NC(=O)[C@H](CC(C)C)NC(=O)[C@H](CCCN)NC(=O)[C@H](Cc4ccc(-c5ccc(C(=O)O)cc5)cc4)NC(=O)CNC(=O)[C@@H](C)N(C)C(=O)[C@H](CC(=O)O)NC(=O)[C@H]([C@@H](C)c4cccc5ccccc45)NC(=O)[C@@H]4C[C@@H](N)CN4C(=O)CNC(=O)[C@H](Cc4ccc(C(=O)O)cc4)NC(=O)[C@H](Cc4c[nH]c5ccccc45)NC3=O)cc2)CC1` [Example 209] (cyclo([Phe(4-(4-Ac-piperazinyl))]W[Phe(4-COOH)]G[Pro(4R-NH2)][1Nal(3S-Me)]D[dNMeA]G[Bip(4'-COOH)][Orn]L[dA][hCha])), the pIC50 was 11.05. As for `CC(=O)NCCOc1ccc(C[C@@H]2NC(=O)[C@H](CCC3CCCCC3)NC(=O)[C@@H](CCN)NC(=O)[C@H](CO)NC(=O)[C@H](Cc3c[nH]c4ncccc34)NC(=O)[C@H](Cc3ccc(-c4ccc(C(=O)O)cc4)cc3)NC(=O)CNC(=O)[C@@H](C)N(C)C(=O)[C@H](CC(=O)O)NC(=O)[C@H]([C@@H](C)c3cccc4ccccc34)NC(=O)[C@@H]3C[C@@H](N)CN3C(=O)CNC(=O)[C@H](Cc3ccc(C(=O)O)cc3)NC(=O)[C@H](Cc3c[nH]c4cc(Cl)ccc34)NC2=O)cc1` [Example 210] (cyclo([AEF](Ac)[Trp(6-Cl)][Phe(4-COOH)]G[Pro(4R-NH2)][1Nal(3S-Me)]D[dNMeA]G[Bip(4'-COOH)][Trp(7-aza)]S[dDab][hCha])), the figure is 10.70; as for `CC(=O)NCCOc1ccc(C[C@@H]2NC(=O)[C@H](CCc3ccc(O)cc3)NC(=O)[C@@H](CCN)NC(=O)CNC(=O)[C@H](CN3CCc4ccccc43)NC(=O)[C@H](Cc3ccc(-c4ccc(C(=O)O)cc4)cc3)NC(=O)CNC(=O)[C@@H](C)N(C)C(=O)[C@H](CC(=O)O)NC(=O)[C@H]([C@@H](C)c3cccc4ccccc34)NC(=O)[C@@H]3C[C@@H](N)CN3C(=O)CNC(=O)[C@H](Cc3ccc(C(=O)O)cc3)NC(=O)[C@H](Cc3c[nH]c4cc(F)ccc34)NC2=O)cc1` [Example 211] (cyclo([AEF](Ac)[Trp(6-F)][Phe(4-COOH)]G[Pro(4R-NH2)][1Nal(3S-Me)]D[dNMeA]G[Bip(4'-COOH)][Ala(indolin-1-yl)]G[dDab][hTyr])), 10.57. On to `CC(=O)NCCOc1ccc(C[C@@H]2NC(=O)[C@H](CCC3CCCCC3)NC(=O)[C@@H](CCN)NC(=O)[C@H](CO)NC(=O)[C@H](Cc3c[nH]c4ncccc34)NC(=O)[C@H](Cc3ccc(-c4ccc(C(=O)O)cc4)cc3)NC(=O)CNC(=O)[C@@H](C)N(C)C(=O)[C@H](CC(=O)O)NC(=O)[C@H]([C@@H](C)c3cccc4ccccc34)NC(=O)[C@@H]3C[C@@H](N)CN3C(=O)CNC(=O)[C@H](Cc3ccc(C(=O)O)cc3)NC(=O)[C@H](Cc3c[nH]c4cc(F)ccc34)NC2=O)cc1` [Example 212] (cyclo([AEF](Ac)[Trp(6-F)][Phe(4-COOH)]G[Pro(4R-NH2)][1Nal(3S-Me)]D[dNMeA]G[Bip(4'-COOH)][Trp(7-aza)]S[dDab][hCha])), for which the pIC50 is 10.60.
